Assay results published in patent US12595230B2, “Substituted 6,7-dihydro-5H-benzo[7]annulene compounds and their derivatives, processes for their preparation and therapeutic uses thereof” (Sanofi, priority 2020, dated 2026).

Target: T1, ERα (Homo sapiens, UniProt P03372)
T1 construct: host or cells: MCF7
T1 sequence (P03372 1-595): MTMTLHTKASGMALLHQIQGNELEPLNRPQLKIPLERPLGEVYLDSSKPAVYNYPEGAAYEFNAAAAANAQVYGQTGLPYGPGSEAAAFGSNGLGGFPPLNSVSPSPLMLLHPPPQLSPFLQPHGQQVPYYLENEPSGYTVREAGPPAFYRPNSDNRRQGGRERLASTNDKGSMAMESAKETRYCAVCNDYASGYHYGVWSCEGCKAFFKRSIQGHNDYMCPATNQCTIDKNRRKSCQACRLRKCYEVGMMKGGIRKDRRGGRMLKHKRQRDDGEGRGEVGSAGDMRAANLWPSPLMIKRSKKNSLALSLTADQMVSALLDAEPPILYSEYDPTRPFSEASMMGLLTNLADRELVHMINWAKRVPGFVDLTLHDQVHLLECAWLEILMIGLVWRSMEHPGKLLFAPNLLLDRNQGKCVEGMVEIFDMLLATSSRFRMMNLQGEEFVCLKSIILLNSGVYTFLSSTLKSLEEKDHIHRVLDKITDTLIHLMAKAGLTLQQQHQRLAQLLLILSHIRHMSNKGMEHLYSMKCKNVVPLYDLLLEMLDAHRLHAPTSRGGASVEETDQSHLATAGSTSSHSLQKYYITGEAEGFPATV
Assay: Estrogen receptor degradation activity: breast cancer cell ERα in cell western assay (MCF7 cells)
Format: cell-based
Conditions: for % Degradation At 0.3 μM: 4 hours, relative to fulvestrant 0.1 μM positive control; for DC50: 4 hours post compound addition, concentration which degrades 50% of the estrogen receptor, read-out: Degradation IC50
Outline: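 Compounds were applied to MCF7 cells in stripped-serum, phenol red-free medium for 4 h at final 0.3–0.0000018 μM, with fulvestrant (0.1 μM) as control. Value: IC50 (nM) for 50% ERα degradation.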

Row | Structure (SMILES) | % Degradation At 0.3 μM [%] | DC50 [nM]
1 | N#Cc1c(C(=O)O)ccc2c1CCCC(c1ccc(Cl)cc1Cl)=C2c1ccc(CC2CN(CCCF)C2)cc1.O=CO [Example 246, 4-cyano-8-(2,4-dichlorophenyl)-9-(4-((1-(3-fluoropropyl)azetidin-3-yl)methyl)phenyl)-6,7-dihydro-5H-benzo[7]annulene-3-carboxylic acid, formic acid] | 73 | 31.6
2 | O=C(O)c1ccc2c(c1Cl)CCCC(c1ccc(Cl)cc1Cl)=C2c1ccc(CC2CN(CCCF)C2)cc1 [Example 247, 4-chloro-8-(2,4-dichlorophenyl)-9-(4-((1-(3-fluoropropyl)azetidin-3-yl)methyl)phenyl)-6,7-dihydro-5H-benzo[7]annulene-3-carboxylic acid] | 97 | 1.8
3 | O=C(O)c1cc2c(cc1Cl)C(c1ccc(CC3CN(CCCF)C3)cc1)=C(c1ccc(Cl)cc1Cl)CCC2 [Example 248, 2-chloro-8-(2,4-dichlorophenyl)-9-(4-((1-(3-fluoropropyl)azetidin-3-yl)methyl)phenyl)-6,7-dihydro-5H-benzo[7]annulene-3-carboxylic acid] | 90 | 2.2
4 | O=C(O)c1ccc2c(c1)CCCC(c1ccccc1Cl)=C2c1ccc(CC2CN(CCCF)C2)cn1 [Example 252, 8-(2-chlorophenyl)-9-(5-((1-(3-fluoropropyl)azetidin-3-yl)methyl)pyridin-2-yl)-6,7-dihydro-5H-benzo[7]annulene-3-carboxylic Acid] | 67 | 48.6
5 | O=C(O)c1ccc2c(c1)CCCC(c1ccc(Cl)cc1Cl)=C2c1ccc(CC2CN(CCCF)C2)cn1 [Example 253, 8-(2,4-dichlorophenyl)-9-(5-((1-(3-fluoropropyl)azetidin-3-yl)methyl)pyridin-2-yl)-6,7-dihydro-5H-benzo[7]annulene-3-carboxylic Acid] | 89 | 4
6 | Oc1ccc2c(c1)CCCC(c1ccc(Cl)cc1Cl)=C2c1ccc(CC2CN(CCCF)C2)cc1 [Example 254, 8-(2,4-dichlorophenyl)-9-(4-((1-(3-fluoropropyl)azetidin-3-yl)methyl)phenyl)-6,7-dihydro-5H-benzo[7]annulen-3-ol] | 85 | 1.4
7 | Cc1c(C2=C(c3ccc(CC4CN(CCC(F)(F)F)C4)cc3)c3ccc(C(=O)O)cc3CCC2)cccc1C(F)(F)F [Example 256, 8-(2-methyl-3-(trifluoromethyl)phenyl)-9-(4-((1-(3,3,3-trifluoropropyl)azetidin-3-yl)methyl)phenyl)-6,7-dihydro-5H-benzo[7]annulene-3-carboxylic acid] | 82 | 1
8 | O=C(O)c1ccc2c(c1)CCCC(c1ccc(F)cc1C(F)(F)F)=C2c1ccc(CC2CN(CCC(F)(F)F)C2)cc1 [Example 258, 8-(4-fluoro-2-(trifluoromethyl)phenyl)-9-(4-((1-(3,3,3-trifluoropropyl)azetidin-3-yl)methyl)phenyl)-6,7-dihydro-5H-benzo[7]annulene-3-carboxylic acid] | 87 | 0.8
9 | O=C(O)c1ccc2c(c1)CCCC(c1ccc(Cl)cc1Cl)=C2c1ccc(CC2CN(CCC(F)(F)F)C2)cc1 [Example 261, 8-(2,4-dichlorophenyl)-9-(4-((1-(3,3,3-trifluoropropyl)azetidin-3-yl)methyl)phenyl)-6,7-dihydro-5H-benzo[7]annulene-3-carboxylic acid] | 89 | 0.8
10 | Cl.O=C(O)c1ccc2c(c1)CCC(c1ccc(Cl)cc1Cl)=C2c1ccc(CC2CN(CCCF)C2)cc1 [Example 262, 6-(2,4-Dichlorophenyl)-5-(4-((1-(3-fluoropropyl)azetidin-3-yl)methyl)phenyl)-7,8-dihydronaphthalene-2-carboxylic Acid Hydrochloride] | 91 | 1.6
11 | Cc1cc(Cl)ccc1C1=C(c2ccc(CC3CN(CCCF)C3)cc2)c2ccc(C(=O)O)cc2OCC1 [Example 263, 4-(4-chloro-2-methylphenyl)-5-(4-((1-(3-fluoropropyl)azetidin-3-yl)methyl)phenyl)-2,3-dihydrobenzo[b]oxepine-8-carboxylic acid] | 90 | 0.8
12 | O=C([O-])c1ccc2c(c1)OCCC(c1ccc(F)cc1Cl)=C2c1ccc(CC2CN(CCCF)C2)cc1.[Na+] [Example 264, sodium 4-(2-chloro-4-fluorophenyl)-5-(4-((1-(3-fluoropropyl)azetidin-3-yl)methyl)phenyl)-2,3-dihydrobenzo[b]oxepine-8-carboxylate] | 95 | 1.1
13 | O=C(O)c1ccc2c(c1)CCCC(c1cc(F)c(F)c(F)c1)=C2c1ccc(CC2CN(CCCF)C2)cc1 [Example 267, 9-(4-((1-(3-fluoropropyl)azetidin-3-yl)methyl)phenyl)-8-(3,4,5-trifluorophenyl)-6,7-dihydro-5H-benzo[7]annulene-3-carboxylic acid] | 89 | 0.8
14 | COc1c(C(=O)O)ccc2c1CCCC(c1ccc(F)cc1C)=C2c1ccc(CC2CN(CCCF)C2)cc1 [Example 269, 8-(4-fluoro-2-methylphenyl)-9-(4-((1-(3-fluoropropyl)azetidin-3-yl)methyl)phenyl)-4-methoxy-6,7-dihydro-5H-benzo[7]annulene-3-carboxylic acid] | 100 | 180

Now those with a lower DC50, led by results:

Row | % Degradation At 0.3 μM [%] | DC50 [nM] | Structure (SMILES)
15 | 90 | 0.4 | Cc1cc2c(cc1C(=O)O)CCCC(c1ccc(Cl)cc1Cl)=C2c1ccc(CC2CN(CCCF)C2)cc1 [Example 249, 8-(2,4-dichlorophenyl)-9-(4-((1-(3-fluoropropyl)azetidin-3-yl)methyl)phenyl)-2-methyl-6,7-dihydro-5H-benzo[7]annulene-3-carboxylic acid]
16 | 90 | 0.6 | Cc1c(C(=O)O)ccc2c1CCCC(c1ccc(Cl)cc1Cl)=C2c1ccc(CC2CN(CCCF)C2)cc1.Cl [Example 250, 8-(2,4-dichlorophenyl)-9-(4-((1-(3-fluoropropyl)azetidin-3-yl)methyl)phenyl)-4-methyl-6,7-dihydro-5H-benzo[7]annulene-3-carboxylic acid hydrochloride]
17 | 87 | 0.7 | O=C([O-])c1ccc2c(c1)CCCC(c1cc(F)cc(C(F)F)c1)=C2c1ccc(CC2CN(CCCF)C2)cc1.[Na+] [Example 251, sodium 8-(3-(difluoromethyl)-5-fluorophenyl)-9-(4-((1-(3-fluoropropyl)azetidin-3-yl)methyl)phenyl)-6,7-dihydro-5H-benzo[7]annulene-3-carboxylate]
18 | 83 | 0.7 | O=C(O)c1ccc2c(c1)CCCC(c1cccc(C(F)(F)F)c1Cl)=C2c1ccc(CC2CN(CCC(F)(F)F)C2)cc1 [Example 257, 8-(2-chloro-3-(trifluoromethyl)phenyl)-9-(4-((1-(3,3,3-trifluoropropyl)azetidin-3-yl)methyl)phenyl)-6,7-dihydro-5H-benzo[7]annulene-3-carboxylic acid]
19 | 87 | 0.4 | O=C(O)c1ccc2c(c1)CCCC(c1cccc(Cl)c1C(F)(F)F)=C2c1ccc(CC2CN(CCC(F)(F)F)C2)cc1 [Example 259, 8-(3-chloro-2-(trifluoromethyl)phenyl)-9-(4-((1-(3,3,3-trifluoropropyl)azetidin-3-yl)methyl)phenyl)-6,7-dihydro-5H-benzo[7]annulene-3-carboxylic acid]
20 | 86 | 0.6 | Cc1c(Cl)cccc1C1=C(c2ccc(CC3CN(CCC(F)(F)F)C3)cc2)c2ccc(C(=O)O)cc2CCC1 [Example 260, 8-(3-chloro-2-methylphenyl)-9-(4-((1-(3,3,3-trifluoropropyl)azetidin-3-yl)methyl)phenyl)-6,7-dihydro-5H-benzo[7]annulene-3-carboxylic acid]
21 | 83 | 0.4 | Cc1ccc(C2=C(c3ccc(CC4CN(CCCF)C4)cc3)c3cc(F)c(O)c(F)c3CCC2)c(Cl)c1 [Example 265, 8-(2-chloro-4-methylphenyl)-2,4-difluoro-9-(4-((1-(3-fluoropropyl)azetidin-3-yl)methyl)phenyl)-6,7-dihydro-5H-benzo[7]annulen-3-ol]
22 | 90 | 0.3 | O=C(O)c1ccc2c(c1)CCCC(c1cc(F)cc(F)c1)=C2c1ccc(CC2CN(CCCF)C2)cc1 [Example 266, 8-(3,5-difluorophenyl)-9-(4-((1-(3-fluoropropyl)azetidin-3-yl)methyl)phenyl)-6,7-dihydro-5H-benzo[7]annulene-3-carboxylic acid]
23 | 89 | 0.5 | COc1nc(C(F)(F)F)ccc1C1=C(c2ccc(CC3CN(CCCF)C3)cc2)c2ccc(C(=O)O)cc2CCC1 [Example 268, 9-(4-((1-(3-fluoropropyl)azetidin-3-yl)methyl)phenyl)-8-(2-methoxy-6-(trifluoromethyl)pyridin-3-yl)-6,7-dihydro-5H-benzo[7]annulene-3-carboxylic acid]
